Measurements from US20080051451A1, “Autoimmune conditions and NADPH oxidase defects” (priority 2006, published 2008).
Entries after “also recorded” stand apart in the source; their conditions may differ. Blank lines part the entries; values can stand above or below the molecule they belong to.

What was measured:
[1] = test system: NADPH oxidase; assay: Oxidative burst response to PMA in spleen granulocytes after s.c. injection in vivo; parameters: species or system Rat (Rattus norvegicus); settings: spleen granulocytes 5 days after s.c. injection (200 μl) in DA.Ncf1^DA rats, PMA stimulation, compared to naive DA.Ncf1^DA and DA.Ncf1^E3
Method: The term DA.Ncf1^DA rats designates DA rats carrying the Ncf1 DA allele with impaired NADPH oxidase capacity and the term DA.Ncf1^E3 rats designates DA rats carrying the Ncf1^E3 allele with functional NADPH oxidase capacity (Olofsson & Holmdahl (2003) Scand J Immunol 58:155-164).
Oxidative burst response to PMA stimulation in vitro in spleen granulocytes taken 5 days after s.c. phytol injection in DA.Ncf1^DA rats (200 μl) compared to naive DA.Ncf1^DA and DA.Ncf1^E3 (n=5) (FIG. 3).

[2] = Biodistribution of 3H-labelled phytol; format: in vivo, Rat (Rattus norvegicus)
Method: DA rats originating from Harlan Netherlands (N=4 rats per group) injected with compound 1 (phytol) mixed with radiolabelled compound 1 (phytol) (Moravek Biochemicals, CA) to a total volume of […] at 167 μCi/rat with ^3H-Phytol. At sacrifice at day 2, 4, 8, 11 and 17, respectively, inguinal lymph nodes, spleen, heart, thymus, kidney, liver, lung, adipose tissue, muscle, injection site tissue and blood were collected in equal amount of saline solution in pre-weight tubes (blood with heparin to prevent coagulation). The tissues were homogenized and mixed with ready-safe scintillation liquid (Beckman Coulter, CA). Biodistribution was estimated as relative CPM per gram tissue.

[3] = test system: DA.Ncf1^DA rats; assay: Pristane induced arthritis (PIA) in DA.Ncf1^DA rats; format: in vivo, Rat (Rattus norvegicus); settings: for severity of PIA, therapeutic effect: 100 μl subcutaneous injections in the neck at day 8 and 10 after arthritis induction; for severity of PIA, oral administration in food 500 mg/kg/day: mixed in the food for continuous uptake; for severity of PIA, oral administration in food 1% daily: mixed in the food for daily uptake
Method: Treatments with compound 1 (phytol) or compound 5 (phytyl acetate) were administered to DA.Ncf1^DA rats as 100 μl subcutaneous injections in the neck at day 8 and 10 after arthritis induction (untreated control (◯), compound 1 (phytol) (♦) and compound 5 (phytyl acetate) (▴)) (FIG. 9).
Treatments with compound 2 (farnesol) or compound 4 (farnesylacetate) were administered to DA.Ncf1^DA rats as 100 μl subcutaneous injections in the neck at day 8 and 10 after arthritis induction, (untreated control (◯), compound 2 (farnesol) (▪) and compound 4 (farnesylacetate) (▴)) (FIG. 11).
Treatments with compound 1 (phytol), compound 6 (di-hydro-phytol, compound 5 (phytyl acetate), or compound 7 (di-hydro-phytyl acetate were administered to DA.Ncf1^DA rats as 100 μl subcutaneous injections in the neck at day 8 and 10 after arthritis induction, (untreated control (◯), compound 1 (phytol) (♦), compound 6 (di-hydro-phytol (▪), compound 5 (phytyl acetate) (▴) or compound 7 (di-hydro-phytyl acetate (●)) (FIG. 12).
Treatments of DA.Ncf1^DA rats with compound 1 (phytol) mixed in the food for continuous uptake compared with Omega3 fatty acids, (untreated control (◯), Omega3 fatty acid (□), phytol 1% daily (♦), phytol 1% every 2'nd day (▴), or phytol 1% initiated day 7 after arthritis induction (▪)) (FIG. 13).
Treatments of DA.Ncf1^DA rats with compound 5 (phytyl acetate) mixed in the food for daily uptake, (untreated control (◯), compound 1 (phytol) 1% daily (♦), or compound 5 (phytyl acetate) 1% daily (▴)) (FIG. 14).
Treatments with compound 1 (phytol) at 1.6 or 2.3 g/kg/day administered to DA.Ncf1^DA rats by oral gavage given by dosing every second day with compound 1 (phytol) […] (♦), compound 1 (phytol) […] (▴) or untreated control (◯).
Treatments of DA.Ncf1^DA rats with compound 1 (phytol) or compound 9 (isophytol) mixed in the food for continuous uptake compared with fenofibrate, (compound 1 (phytol) 500 mg/kg/day (♦), compound 9 (isophytol) 500 mg/kg/day (▴), or fenofibrate 100 mg/kg/day (□). Untreated control (◯).) (see FIG. 17).

[4] = test system: DA.Ncf1^DA rats; assay: Collagen induced arthritis (CIA) with oil adjuvant; format: in vivo, Rat (Rattus norvegicus)
Method: Collagen induced arthritis (CIA) was induced by an s.c. injection of 100 μl of rat collagen type II (CII; 100 μg/rat-150 μg/rat), emulsified in incomplete Freund's adjuvant (IFA; Sigma Aldrich) (FIG. 7).
Effect of s.c. administration of phytol (200 μl) 5 days.
At day 27 after immunization, sera were taken and analyzed for anti-CII IgG levels (n=7). Titers are relative to pooled positive sera (units).

[5] = test system: DA.Ncf1^DA rats; assay: Non oil collagen induced arthritis (NOCIA); format: in vivo, Rat (Rattus norvegicus)
Method: Non oil collagen induced arthritis (NOCIA) was induced by emulsifying rat CII (300 μg) in a mixture of LPS (50 μg; Sigma Aldrich), CPG (5′-TCCATGACGTTCCTGACGTT-3′; SEQ ID NO:1) (45 μg; MWG-Biotech AG, Ebersberg, Germany) and alum (6 mg; Sigma Aldrich) and injected s.c. in a total volume of 300 μl.
Preventive effect on arthritis of phytol injection (200 μl s.c.) five days prior to induction of NOCIA in DA.Ncf1^DA rats, (control (Δ) and compound 1 (phytol) (▴)).
Delayed type hypersensitivity (DTH) response is abrogated after compound 1 (phytol) injection (FIG. 8B). Day 67 after NOCIA immunization the immune system was challenged by an injection of CII in the ear. Following increase in ear volume was measured and compared to control ear (control n=7 and compound 1 (phytol) n=8).

[6] = test system: DA.Ncf1^DA rats; assay: Experimental allergic encephalomyelitis (EAE) in vivo; parameters: species or system Rat (Rattus norvegicus); settings: 200 μL injected at the base of the tail at day 0; scored 40 days; p<0.01 vs untreated control
Method: At day 0, all rats were treated (immunized) with 200 μL SCH (DA.Ncf1^DA spinal cord homogenate, to induce EAE) i.d. at the base of the tail. The rats were then scored according to the following scale for 40 days: • 0=Normal • 1=Tail weakness • 2=Tail paralysis • 3=Tail paralysis and mild […] • 4=Tail paralysis and severe […] • 5=Tail paralysis and paralysis of one limb • 6=Tail paralysis and paralysis of a pair of limbs • 7=Tetra-paresis • 8=Pre-morbid or dead. […] EAE began to appear around day 6.

[7] = Arthritogenicity / arthritis effect (general statement); format: in vivo; settings: general statement in Example 3
[8] = test system: DA.Ncf1^DA rats; assay: Pristane induced arthritis (PIA) in DA.Ncf1^DA rats; format: in vivo, Rat (Rattus norvegicus)
[9] = test system: Lewis.IF rat; assay: Pristane induced arthritis (PIA) in Lewis.IF rats; settings: 200 μl s.c. 5 days before induction of PIA
Method: (§1) Disease was induced in all rats at the age of 6-12 weeks. Arthritis development was monitored with a macroscopic scoring system of the four limbs ranging from 0 to 15 (1 point for each swollen or red toe, 1 point for midfoot digit or knuckle, 5 points for a swollen ankle). The scores of the four paws were added yielding a maximum total score of 60 for each rat.
(§2) Therapeutic treatments were administered s.c. or intra peritoneal (i.p.; 200 μl) after onset of disease in the acute or chronic phase (FIG. 6).

[10] = test system: Rats heterozygous for the functional Ncf1 (Ncf1^E3) allele with Pia3 locus; assay: Pristane induced arthritis (PIA) in rats with a functional oxidative burst; settings: injected i.p. (200 μl) at the estimated peak of disease
Method: as §1, §2

[11] = test system: HL-60 cells; assay: Oxidative burst assay of granulocytes in vitro (isoluminol, extra-cellular ROS); settings: HL-60 differentiated to granulocytes, 50 minutes, 37° C.
Method: The human myeloma cell line HL-60 (ATCC, CCI-240) was cultured in D-MEM (Gibco, Paisley, UK) complemented with 10% fetal calf serum and Penicillin-Streptomycin. […] Before assaying the cells were washed and resuspended in PBS to a concentration of 10^7 cells/ml.
Briefly, 5 μl of resuspended oils were added into 96-well plates containing 5×10^5 cells/well in a total volume of 200 μl PBS/well (final concentration isoluminol 50 μg/ml; Sigma Aldrich) and horse radish peroxidase (type II 2,5 U/ml; Sigma Aldrich). Samples were gently mixed and the data collection was initiated immediately. Extra-cellular ROS production was followed at 37° C. as produced luminescence signal (FluoStar Optima, BMG Labtechnologies, Offenburg, Germany) and presented as maximal relative signal during a measurement period of 50 minutes.
The cells were differentiated to granulocytes by culture in presence of 1,25% dimethylsulfoxide (DMSO; Sigma Aldrich Inc., Milwaukee, Wis.) for six days.

[12] = relative CPM per gram tissue, day 2, 4, 8, 11, 17

fraction remaining as a depot in the injection site ([2]; DA rats, 3H-Phytol injection): > 90%
arthritogenicity [7]: non arthritogenic
Structure (SMILES): C/C(=C\CO)CCCC(C)CCCC(C)CCCC(C)C (stereo not drawn) [compound 1, 3,7,11,15-Tetramethyl-2-hexadecen-1-ol]
Oxidative burst / NADPH oxidase capacity in vivo [1]: restores to NADPH oxidase capacity to a level comparable to the level of NADPH oxidase capacity in rats with a functional oxidative burst
Oxidative burst / NADPH oxidase capacity in vivo ([1]; listed as Phytol): restores the oxidative burst defect in vivo
cellular localisation of staining in lymph nodes ([2]; rat, in vivo): in-between cells or in the cell membrane, i.e. not intracellular
distribution within the draining lymph nodes ([2]; rat, in vivo): distributed primarily to the cortical regions as well as close to the sinusoidal space of the draining lymph nodes
primary tissue for accumulation [2, 12]: draining lymph nodes were the primary tissue for accumulation
time course of distribution to the inguinal lymph nodes [2, 12]: highest accumulation more than one week after injection and showed a decrease after two weeks
severity of PIA, therapeutic effect [3]: therapeutic effects
severity of PIA, oral administration in food 500 mg/kg/day [3]: reduced the severity of arthritis
severity of PIA, oral administration in food 1% daily [3]: reducing the severity of arthritis
adverse effect of the high doses (macroscopic observation, postmortem dissection) ([3]; oral gavage every second day, both doses): No adverse effect
severity of PIA, oral administration in food, three regimes ([3]; phytol 1% daily, 1% every 2'nd day, or 1% initiated day 7 after arthritis induction): reduced the severity of arthritis
anti-CII antibody (IgG) levels in serum ([4]; day 27 after immunization): decreases anti-CII antibody levels in serum
severity of collagen-induced arthritis ([4]; s.c. administration (200 μl) 5 days before immunization with CII): prevents collagen-induced arthritis
arthritis severity in NOCIA ([5]; 200 μl s.c. five days prior to induction): reduces arthritis severity
Delayed type hypersensitivity (DTH) response (increase in ear volume) ([5]; CII challenge in the ear day 67 after NOCIA immunization): abrogated
severity of inflammatory and paralyzing symptoms of EAE (score 0-8) [6]: significant difference in severity of inflammatory and paralyzing symptoms of EAE
arthritis ameliorating effects [7]: arthritis ameliorating effects
severity of PIA, oral gavage ([8]; both doses, every second day (1.6 and 3.2 mg/kg as printed elsewhere in the source)): potent arthritis ameliorating effect
severity of arthritis, chronic phase of PIA ([8]; injected i.p. twice (200 μl) starting day 70, three days between treatments): decreases arthritis severity in the chronic phase of arthritis
severity of PIA (arthritis score), preventive ([8]; injected s.c. day -5 prior to pristane injection): inhibits development of arthritis
cartilage destruction (serum COMP levels) ([8]; sera taken day 38, treatment from day 22): Cartilage destruction is decreased
severity of arthritis, acute phase of established PIA ([8]; two injections (200 μl, s.c. or i.p.) with 5 days in between starting day 22): ameliorates disease in the acute phase of arthritis
severity of PIA, preventive, Lewis.IF rat [9]: arthritis preventing effect
severity of arthritis in rats with a functional oxidative burst [10]: arthritis ameliorating effect
Extra-cellular ROS production (maximal relative luminescence signal) [11]: strong ROS production

arthritogenicity [7]: non arthritogenic
Structure (SMILES): CC(C)=CCC/C(C)=C/CC/C(C)=C/CO [compound 2, 3,7,11-Trimethyl-2,6,10-dodecatrien-1-ol]
severity of PIA, therapeutic effect [3]: therapeutic effect
arthritis ameliorating effects [7]: arthritis ameliorating effects
Extra-cellular ROS production (maximal relative luminescence signal) [11]: strong ROS production

arthritogenicity [7]: non arthritogenic
Structure (SMILES): CC(C)=CCC/C(C)=C/CC/C(C)=C/CC/C(C)=C/CO [compound 3, 3,7,11,15-Tetramethyl-hexada-2,6,10,14-tetraen-1-ol]
arthritis ameliorating effects [7]: arthritis ameliorating effects
Extra-cellular ROS production (maximal relative luminescence signal) [11]: strong ROS production

Structure (SMILES): CC(=O)OC/C=C(\C)CC/C=C(\C)CCC=C(C)C [compound 4, Acetic acid 3,7,11-trimethyl-dodeca-2,6,10-trienyl ester]
severity of PIA, therapeutic effect [3]: therapeutic effect comparable to the therapeutic effect of the un-derivatized compound 2

Structure (SMILES): CC(=O)OC/C=C(\C)CCCC(C)CCCC(C)CCCC(C)C (stereo not drawn) [compound 5, Acetic acid 3,7,11,15-tetra-metyl-hexadec-2-enyl-ester]
severity of PIA, therapeutic effect [3]: therapeutic effect comparable to the therapeutic effect of the un-derivatized compound 1; also recorded: therapeutic effects
severity of PIA, oral administration in food 1% daily [3]: equally effective as oral treatment with compound 1 (phytol) in reducing the severity of arthritis

Structure (SMILES): CC(C)CCCC(C)CCCC(C)CCCC(C)CCO (stereo not drawn) [compound 6, 3,7,11,15-Tetramethyl-hexadecan-1-ol]
severity of PIA, therapeutic effect [3]: therapeutic effect comparable to the therapeutic effects of compound 1 and compound 5

Structure (SMILES): CC(=O)OCCC(C)CCCC(C)CCCC(C)CCCC(C)C (stereo not drawn) [compound 7, Acetic acid 3,7,11,15-tetramethyl-hexadecyl ester]
severity of PIA, therapeutic effect [3]: therapeutic effect comparable to the therapeutic effects of compound 1 and compound 5

Structure (SMILES): C=CC(C)(O)CCCC(C)CCCC(C)CCCC(C)C (stereo not drawn) [compound 9, 3,7,11,15-Tetramethyl-1-hexadecen-3-ol]
severity of PIA, oral administration in food 500 mg/kg/day [3]: reduced the severity of arthritis
Extra-cellular ROS production (maximal relative luminescence signal) [11]: strong ROS production

Structure (SMILES): CC(C)OC(=O)C(C)(C)Oc1ccc(C(=O)c2ccc(Cl)cc2)cc1 [fenofibrate, propan-2-yl 2-[4-(4-chlorobenzoyl)phenoxy]-2-methyl-propanoate, reference compound]
severity of PIA, oral fenofibrate 100 mg/kg/day ([3]; 100 mg/kg/day): no effect on the severity of arthritis
